Test results reported in patent US12144823B2, “Porous silicate and/or aluminosilicate matrix/cerium oxide nanoparticle nanocarrier for combination anti-cancer therapeutic and antioxidant delivery” (Imam Abdulrahman Bin Faisal University, priority 2022, dated 2024).
Entries after “also recorded” stand apart in the source; their conditions may differ.

Key:
[1] = system: MCF-7 (Human Breast Cancer) cells; experiment: Cytotoxicity assay by MTT, MCF-7 cells; format: cell-based
Procedure: (§1) MCF-7 (Human Breast Cancer) and HFF-1 (Human Foreskin Fibroblasts) cell lines were sub-cultured in DMEM (Dullbecco's Modified Eagle Medium) supplemented with 1% of L-Glutamine, 10% of Fetal Bovine Serum as FBS (Gibco), 1% of Non-Essential Amino Acid (Gibco), and 1% of penicillin and streptomycin. The cells were cultured in a humidified CO2 incubator at 37° C. (Thermoscientific, Waltham, MA). The cells were seeded for in a 96 well plate (Thermo Fisher, Waltham, USA) with 10,000 cells per well. […] The cells were tested after 24, 48 and 72 hours using (Thiazolyl Blue Tetrazolium Bromide, MOLEQULE-ON) MTT assay.
(§2) Cultured media along with NPs were removed from 96 well plates and the cells were washed with 1×PBS.
(§3) The statistical analysis was done for determining the MTT cytotoxicity assay, using an unpaired two-way ANOVA (GraphPad Prism software), P-value is set at <0.05 (* if P≤0.05, ** if P≤0.01, *** if P≤0.001, **** if P≤0.0001) were considered statistically significant. The results were calculated from different three experiments.
The cytotoxicity study was performed to evaluate the toxicity of CeO2 nanoparticles against breast cancer cell line (MCF-7) and a non-cancerous cell line of human foreskin fibroblast (HFF-1). Different concentrations were applied (see Table 1) for 24, 48 and 72 hours, then, cytotoxicity was measured by MTT assay after each period of treatment. The data were plotted in scattered graphs using excel to calculate the EC50 values from the exponential trendline generated equation. The statistical significance with the p value and standard deviation were analyzed by two-way ANOVA test in GraphPad, Prism software. […] In addition, EC50 values were calculated to estimate the half maximal cytotoxic effect after each time point.

[2] = system: HFF-1 (Human Foreskin Fibroblasts) cells; experiment: Cytotoxicity assay by MTT, HFF-1 cells; format: cell-based
Procedure: as §1, §2, §3

MCF-7 cells = experiment: Imaging of treated cells by light microscopy, MCF-7; format: cell-based, Human; conditions: 200 or 400 μg/mL, 48 h, light microscope
Procedure: (§4) The cells were observed under the light microscope after each time point to evaluate the morphological changes and study the NPs effect on cell proliferation without fixation. The images were taken by light microscope (TS100F Eclipse, Nikon, Tokyo, Japan) that can work with a digital camera and combined with its Nikon microscope program.
(§5) The effect of nanocomposites on cell morphology was imaged by using a light microscope after each time point. MCF-7 cells and HFF-1 cells were treated with either 200 or 400 μg/mL for 48 h to evaluate the average morphological changes. […] In the microscopy images, the magnification was ×100 and the scale bar represents 100 μm.

HFF-1 cells = experiment: Imaging of treated cells by light microscopy, HFF-1; format: cell-based, Human; conditions: 200 or 400 μg/mL, 48 h, light microscope
Procedure: as §4, §5

N.N.[Cl][Pt][Cl] [cisplatin]
EC50 Value of treated MCF-7 cells, 24 h ([1]; MCF-7, MTT, 24 h treatment): 21.58 µg/mL
EC50 Value of treated MCF-7 cells, 48 h ([1]; MCF-7, MTT, 48 h treatment): 8.03 µg/mL
EC50 Value of treated MCF-7 cells, 72 h ([1]; MCF-7, MTT, 72 h treatment): 3.12 µg/mL
EC50 Value of treated HFF-1 cells, 24 h ([2]; HFF-1, MTT, 24 h treatment): 52.3 µg/mL
EC50 Value of treated HFF-1 cells, 48 h ([2]; HFF-1, MTT, 48 h treatment): 12.62 µg/mL
EC50 Value of treated HFF-1 cells, 72 h ([2]; HFF-1, MTT, 72 h treatment): 6.58 µg/mL
effect on cell morphology and proliferation, MCF-7 (MCF-7 cells): cell death morphological structures
effect on cell morphology and proliferation, HFF-1 (HFF-1 cells): cell death morphological structures

COc1cc(/C=C/C(=O)CC(=O)/C=C/c2ccc(O)c(OC)c2)ccc1O [curcumin]
cytotoxic efficacy against MCF-7 cells (in words) ([1]; MTT, 24-72 h): lowest efficacy with high cell viability percentages; also recorded: rapidly enhanced the cell growth
cytotoxic efficacy against HFF-1 cells (in words) ([2]; MTT, 24-72 h): less efficacy
effect on cell morphology and proliferation, MCF-7 (MCF-7 cells): slightly affected
effect on cell morphology and proliferation, HFF-1 (HFF-1 cells): slightly affected
